# Measured values as given in patent publication US20230144619A1, “SALT OF ARYLAMINOPURINE DERIVATIVE, PREPARATION METHOD THEREFOR AND USE THEREOF” (CSPC Zhongqi Pharmaceutical Technology (Shijiazhuang) Co., …, priority 2020, published 2023).
# Legend:
# lung cancer = conditions: background statement; cited from earlier work
# [1] = system: lung cancer (PC-9) transplantation tumors; conditions: lung cancer PC-9 transplantation tumors in nude mice, background statement; cited from earlier work
# [2] = Solubility test (UV spectrophotometer, saturated solutions shaken 24 hours); type: physicochemical; conditions: for Solubility, Water medium pH = 1.2 / Solubility, Water medium pH = 4.5 / Solubility, Water medium pH = 6.8 / Solubility, Water medium: 25° C.; for Solubility, Water medium pH = 1.2: pH=1.2 hydrochloric acid solution; for Solubility, Water medium pH = 4.5: pH=4.5 phosphate buffer solution; for Solubility, Water medium pH = 6.8: pH=6.8 phosphate buffer solution; for Solubility, Water medium: water (purified water)
# Experimental: Detection instrument: Ultraviolet spectrophotometer/Evolution 300
# The following solutions with pH=1.2, pH=4.5, and pH=6.8 and water were used as the solvent, and the solvent preparation process was as follows:
# (1) pH=1.2 hydrochloric acid solution: To 7.65 mL of hydrochloric acid was added 1000 mL of water, and the mixture was shaken uniformly to obtain the target solution.
# (2) pH=4.5 phosphate buffer solution: 6.8 g of potassium dihydrogen phosphate was taken and diluted with water to 1000 mL, and the mixture was shaken uniformly to obtain the target solution.
# (2) pH=6.8 phosphate buffer solution: 6.8 g of potassium dihydrogen phosphate and 0.896 g of sodium hydroxide were taken and diluted with water to 1000 mL, and the mixture was shaken uniformly to obtain the target solution.
# (4) Water: purified water
# Test tubes with stopper were taken, and 10 mL of dissolution media at various pH values were precisely added to the test tubes respectively, and excessive stock drugs were added until supersaturated solutions were formed. The adding amounts were recorded. The solutions were shaken uniformly, sealed with stoppers, and shaken for 24 hours in a shaker. 2 mL of solutions were taken out at different time points respectively, and centrifuged. The resulting supernatants were taken, filtered, and the subsequent filtrates were taken for later use.
# The above-mentioned saturated solutions in different solvents were taken, and solvents were added to dilute the solutions to certain volumes. The absorbances were measured at a wavelength of 287 nm.
# Preparation of a solution of the reference substance: an appropriate amount of the compound represented by Formula 1 was taken as the reference substance, and precisely weighed. A solvent was added to dissolve and dilute the reference compound to produce a solution containing about 10 μg of the compound represented by Formula 1 per 1 mL. The absorbance was measured at a wavelength of 287 nm to calculate the solubility.
# The salts obtained in Examples 1 and 3-17 and the compound represented by Formula 1 were subjected to the solubility test in media and the test results were shown in the following table: […]
# leukemia = conditions: background statement; cited from earlier work
# [3] = system: human non-small cell lung cancer HCC827; conditions: lung cancer HCC827 transplantation tumors in nude mice, background statement; cited from earlier work
# [4] = system: K562 (BCR-Abl gene rearrangement) subcutaneous tumor model; conditions: human leukemia K562 transplantation tumors in nude mice, background statement; cited from earlier work
# Hygroscopicity test = type: physicochemical; conditions: 25±1° C., relative humidity 80%±2% (DVS, 80% RH)
# Experimental: Detection instrument: XPE105DR
# (1) A dry stoppered glass weighing bottle was taken, placed in a suitable constant-temperature desiccator at 25° C. 1° C. (with a saturated solution of ammonium chloride or ammonium sulfate in the lower part) or an artificial climate box (with the set temperature of 25° C.±1° C. and the relative humidity of 80%±2%) on the day before the test, and precisely weighed and recorded as the weight (m1).
# (2) An appropriate amount of the test sample was taken and spread in the above-mentioned weighing bottle. The thickness of the test sample was generally about 1 mm, and the bottle was precisely weighed and recorded as the weight (m2).
# (3) The stopper was removed to open the weighing bottle, and the opened weighing bottle and the stopper were placed under the above-mentioned constant temperature and humidity conditions for 24 hours.
# (4) The opened weighing bottle was stoppered, precisely weighed, and recorded as the weight (m3).
# Percentage increase in mass=(m3−m2)/(m2−m1)×100%
# (5) The description of hygroscopicity characteristics and the definition for the weight gain due to hygroscopicity:
# Deliquescence: Sufficient water was absorbed to form a liquid.
# Very hygroscopic: the weight gain due to hygroscopicity was not less than 15%.
# Hygroscopic: the weight gain due to hygroscopicity was less than 15% but not less than 2%.
# Slightly hygroscopic: the weight gain due to hygroscopicity was less than 2% but not less than 0.2%.
# Not or nearly not hygroscopic: the weight gain due to hygroscopicity was less than 0.2%.
# Appropriate amounts of the salt samples obtained from Examples 1 and 3-17 were subjected to the hygroscopicity test at a temperature of 25±1° C. under a relative humidity of 80%±2%, and the results were as follows: […]
# DSC and TGA tests = type: physicochemical; conditions: onset temperature
# Experimental: 6. Differential Scanning Calorimetry-Thermogravimetric Analysis (DSC-TGA)
# Detection instrument: NETZSCH STA 449F3
# Temperature range: 20° C.-350° C.;
# Heating rate: 10.0 (K/min);
# 7. Differential Scanning Calorimetry (DSC)
# Detection instrument: NETZSCH DSC 214 Polyma
# Temperature range: 20° C.-250° C.;
# Heating rate: 5.0 (K/min);
# 8. Thermogravimetric Analysis (TGA)
# Detection instrument: METTLER and SDT Q600
# The salts obtained in Examples 1 and 3-17 and the compound represented by Formula 1 were subjected to the DSC and TGA tests in media, and the test results were shown in the following table: […]
# [5] = system: MV4-11 (FLT3-ITD mutation) subcutaneous tumor model; conditions: human leukemia MV4-11 transplantation tumors in nude mice, background statement; cited from earlier work
# [6] = Accelerated stability test; type: physicochemical
# Experimental: Appropriate amounts of the salt samples obtained from Examples 1 and 3-17 were placed at a temperature of 25±2° C. under 0%±5% RH in an open environment for 10 days and at a temperature of 40±2° C. under 75%±5% RH in an open environment for 10 days respectively to perform the accelerated tests, and the results were as follows: […]
# [7] = Placed at 25 ± 2° C. under 0% ± 5% RH in an open environment for 10 days
# [8] = Placed at 40 ± 2° C. under 75% ± 5% RH in an open environment for 10 days
Structure (SMILES),anti-lung cancer activity compared with Gefitinib (lung cancer),efficacy on transplantation tumors [1],"Solubility, Water medium pH = 1.2 [2]","Solubility, Water medium pH = 4.5 [2]","Solubility, Water medium pH = 6.8 [2]","Solubility, Water medium [2]",solubility in water (in words) ([2]; water),anti-leukemia activity compared with Sunitinib (leukemia),efficacy on transplantation tumors [3],efficacy on transplantation tumors [4],Hygroscopicity (Hygroscopicity test),Weight gain due to hygroscopicity (Hygroscopicity test),TGA: starting to decompose (DSC and TGA tests),efficacy on transplantation tumors [5],"Appearance [6, 7]","Appearance [6, 8]",TGA: starting to lose the acid (DSC and TGA tests),TGA: starting to lose the water of crystallization (DSC and TGA tests)
"CC(C)n1c(Nc2cccnc2)nc2cnc(Nc3ccc(N4CCN(C)CC4)cc3)nc21 [The compound represented by Formula 1, 9-isopropyl-2-(4-(4-methylpiperazin-1-yl)anilino)-8-(pyridine-3-amino)-9H-purine]",comparable to that of Gefitinib,remarkable efficacy,12.60 mg/mL,0.57 mg/mL,0.04 mg/mL,0.05 mg/mL,insoluble in water,better than that of Sunitinib,remarkable efficacy,remarkable efficacy,Slightly hygroscopic (the weight gain due to hygroscopicity was less than 2% but not less than 0.2%.),0.45%,~155 °C (see FIG. 42),remarkable efficacy,,,,
CC(C)n1c(Nc2cccnc2)nc2cnc(Nc3ccc(N4CCN(C)CC4)cc3)nc21 [Example 7],,,43.07 mg/mL,6.51 mg/mL,12.24 mg/mL,6.91 mg/mL,,,,,Slightly hygroscopic (the weight gain due to hygroscopicity was less than 2% but not less than 0.2%.),1.19%,,,Yellow solid,Yellow solid,~180 °C (see FIG. 27),crystallization at about 40° C.;
CC(C)n1c(Nc2cccnc2)nc2cnc(Nc3ccc(N4CCN(C)CC4)cc3)nc21 [Example 10],,,66.52 mg/mL,13.98 mg/mL,6.36 mg/mL,2.49 mg/mL,,,,,Slightly hygroscopic (the weight gain due to hygroscopicity was less than 2% but not less than 0.2%.),0.54%,,,Yellow solid,Yellow solid,~170 °C (see FIG. 30),crystallization at about 40° C.;
CC(C)n1c(Nc2cccnc2)nc2cnc(Nc3ccc(N4CCN(C)CC4)cc3)nc21 [Example 11],,,87.38 mg/mL,16.13 mg/mL,8.61 mg/mL,27.78 mg/mL,,,,,Slightly hygroscopic (the weight gain due to hygroscopicity was less than 2% but not less than 0.2%.),0.68%,,,Yellow solid,Yellow solid,~220 °C (see FIG. 31),crystallization at about 40° C.;
CC(C)n1c(Nc2cccnc2)nc2cnc(Nc3ccc(N4CCN(C)CC4)cc3)nc21 [Example 15],,,96.58 mg/mL,45.67 mg/mL,27.84 mg/mL,63.57 mg/mL,,,,,Hygroscopic (the weight gain due to hygroscopicity was less than 15% but not less than 2%.),2.59%,,,Off-white solid,Off-white solid,~80 °C (see FIG. 39),crystallization at about 40° C.;
CC(C)n1c(Nc2cccnc2)nc2cnc(Nc3ccc(N4CCN(C)CC4)cc3)nc21 [Example 4],,,>1000 mg/mL,>1000 mg/mL,>1000 mg/mL,>1000 mg/mL,,,,,Hygroscopic (the weight gain due to hygroscopicity was less than 15% but not less than 2%.),6.94%,,,Liquid,Liquid,~220 °C (see FIG. 23),crystallization at about 40° C.;
